Literature values in article PMC7855261 (Cell chemical biology, 2020).

Tested on: r(CUG)12-MBNL1 complex
Details: ref Parkesh et al., 2012; Rzuczek et al., 2015

Question: For `Nc1ccc2nc(-c3ccc(-c4nc5ccc(N)cc5[nH]4)cc3)[nH]c2c1` [Compound 3, 2,2′-p-Phenylene-bis(5-aminobenzimidazole)], which “Bind r(CUG)^exp and inhibit formation of the r(CUG)^exp-MBNL1 complex” value is on record?
Answer: Its value is “inhibit formation of the r(CUG)^exp-MBNL1 complex”.
